Source: patent US20190231751A1, “TREATMENT OF FIBROTIC DISORDERS WITH JUN N-TERMINAL KINASE INHIBITORS” (Imago Pharmaceuticals, Inc., priority 2016, published 2019)

Tests used:
Type in all cases: biochemical
JNK3 = JNK3 (Homo sapiens, UniProt P53779); assay: In vitro JNK3 inhibition (Table 1)
Procedure: (§1) In vitro assays for the determination of JNK activities are known in the art and exemplary assay formats are described herein.
(§2) IC50 values in Table 1 were determined using the procedures as described in U.S. Pat. No. 8,450,353.

JNK1 = JNK1 (Homo sapiens, UniProt P45983); assay: In vitro JNK1 inhibition (Table 1)
Procedure: as §1, §2

JNK2 = JNK2 (Homo sapiens, UniProt P45984); assay: In vitro JNK2 inhibition (Table 1)
Procedure: as §1, §2

Sequence of JNK1 (P45983 whole entry, species assumed): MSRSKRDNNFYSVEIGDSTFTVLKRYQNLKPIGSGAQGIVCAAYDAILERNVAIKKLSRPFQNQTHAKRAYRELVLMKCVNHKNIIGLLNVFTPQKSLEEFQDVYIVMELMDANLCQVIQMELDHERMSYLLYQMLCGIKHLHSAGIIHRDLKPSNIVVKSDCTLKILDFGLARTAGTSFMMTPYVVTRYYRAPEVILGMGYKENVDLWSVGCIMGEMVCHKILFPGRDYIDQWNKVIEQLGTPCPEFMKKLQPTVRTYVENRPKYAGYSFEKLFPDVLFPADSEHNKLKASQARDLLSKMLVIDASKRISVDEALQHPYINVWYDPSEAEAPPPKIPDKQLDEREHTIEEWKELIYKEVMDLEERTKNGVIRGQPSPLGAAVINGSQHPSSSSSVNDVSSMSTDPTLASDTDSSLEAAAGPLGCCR
Sequence of JNK3 (P53779 whole entry, species assumed): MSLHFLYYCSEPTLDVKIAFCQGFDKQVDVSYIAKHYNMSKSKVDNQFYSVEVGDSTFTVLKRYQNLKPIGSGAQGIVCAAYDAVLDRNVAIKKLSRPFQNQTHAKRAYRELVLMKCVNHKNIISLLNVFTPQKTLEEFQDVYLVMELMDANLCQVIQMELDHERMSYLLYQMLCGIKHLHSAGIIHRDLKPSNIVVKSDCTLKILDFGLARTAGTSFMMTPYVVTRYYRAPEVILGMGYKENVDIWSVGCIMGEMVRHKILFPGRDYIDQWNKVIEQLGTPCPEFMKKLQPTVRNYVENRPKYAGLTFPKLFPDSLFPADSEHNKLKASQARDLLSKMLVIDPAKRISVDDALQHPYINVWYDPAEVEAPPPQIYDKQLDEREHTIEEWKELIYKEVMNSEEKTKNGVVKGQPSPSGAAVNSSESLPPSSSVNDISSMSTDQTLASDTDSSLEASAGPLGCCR
Sequence of JNK2 (P45984 whole entry, species assumed): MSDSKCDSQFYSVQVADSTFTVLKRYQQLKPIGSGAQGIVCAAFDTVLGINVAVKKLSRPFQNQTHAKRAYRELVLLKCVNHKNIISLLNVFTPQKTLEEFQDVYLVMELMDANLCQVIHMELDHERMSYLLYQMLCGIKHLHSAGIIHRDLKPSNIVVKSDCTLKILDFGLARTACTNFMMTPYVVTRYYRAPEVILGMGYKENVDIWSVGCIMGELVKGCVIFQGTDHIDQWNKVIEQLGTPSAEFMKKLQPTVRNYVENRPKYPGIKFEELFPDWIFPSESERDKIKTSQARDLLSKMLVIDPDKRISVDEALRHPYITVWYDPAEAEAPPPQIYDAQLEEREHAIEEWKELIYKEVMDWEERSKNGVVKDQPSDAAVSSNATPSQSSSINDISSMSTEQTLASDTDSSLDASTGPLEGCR

Structure (SMILES) | IC50 (JNK3) [nM] | IC50 (JNK1) [nM] | IC50 (JNK2) [nM]
N#Cc1csc(NC(=O)Cn2c(=O)ccc3cc(C(F)(F)F)ccc32)c1-c1cscn1 [N-(4-cyano-3-(thiazol-4-yl)thiophen-2-yl)-2-(2-oxo-6-(trifluoromethyl)quinolin-1(2H)-yl)acetamide] | < 100 | < 100 | < 100
O=C(Cn1c(=O)ccn2nccc12)Nc1scc(Cl)c1-c1ncn[nH]1 [N-(4-chloro-3-(1H-1,2,4-triazol-5-yl)thiophen-2-yl)-2-(5-oxopyrazolo[1,5-a]pyrimidin-4(5H)-yl)acetamide] | < 100 | < 100 | < 100
O=C(Cn1c(=O)ccc2c(F)cccc21)Nc1scc(Br)c1-c1ncn[nH]1 [N-(4-bromo-3-(1H-1,2,4-triazol-5-yl)thiophen-2-yl)-2-(5-fluoro-2-oxoquinolin-1(2H)-yl)acetamide] | < 100 | < 100 | < 100
O=C(CN1C(=O)CCc2cc(C(F)(F)F)ccc21)Nc1scc(Br)c1-c1ncn[nH]1 [N-(4-bromo-3-(1H-1,2,4-triazol-5-yl)thiophen-2-yl)-2-(2-oxo-6-(trifluoromethyl)-3,4-dihydroquinolin-1(2H)-yl)acetamide] | < 100 | < 100 | < 100
Cn1cnc(-c2c(Br)csc2NC(=O)CN2C(=O)CCc3ncccc32)n1 [N-(4-bromo-3-(1-methyl-1H-1,2,4-triazol-3-yl)thiophen-2-yl)-2-(2-oxo-3,4-dihydro-1,5-naphthyridin-1(2H)-yl)acetamide] | < 100 | < 100 | < 100
O=C(Cn1c(=O)ccc2cc(Br)ccc21)Nc1scc(Cl)c1-c1nc[nH]n1 [2-(6-bromo-2-oxoquinolin-1(2H)-yl)-N-(4-chloro-3-(1H-1,2,4-triazol-3-yl)thiophen-2-yl)acetamide] | < 100 | < 100 | < 100
N#Cc1ccc2ccc(=O)n(CC(=O)Nc3scc(Br)c3-c3ncn[nH]3)c2c1 [N-(4-bromo-3-(1H-1,2,4-triazol-5-yl)thiophen-2-yl)-2-(7-cyano-2-oxoquinolin-1(2H)-yl)acetamide] | < 100 | < 100 | < 100
N#Cc1csc(NC(=O)Cn2c(=O)ccc3cc(C(F)(F)F)ccc32)c1-n1ccnn1 [N-(4-cyano-3-(1H-1,2,3-triazol-1-yl)thiophen-2-yl)-2-(2-oxo-6-triazol-1-yl)-4-cyanothiophen-2-yl)-2-(2-oxo-6-(trifluoromethyl)quinolin-1(2H)-yl)acetamide] | 100 to 10000 | 100 to 10000 | 100 to 10000
O=C(Cc1cccc2ncc(F)cc12)Nc1scc(Br)c1-c1nc[nH]n1 [N-(4-bromo-3-(1H-1,2,4-triazol-3-yl)thiophen-2-yl)-2-(3-fluoroquinolin-5-yl)acetamide] | < 100 | < 100 | < 100
O=C(CN1C(=O)CCc2ccc(Cl)cc21)Nc1scc(Br)c1-c1ncn[nH]1 [N-(4-bromo-3-(1H-1,2,4-triazol-5-yl)thiophen-2-yl)-2-(7-chloro-2-oxo-3,4-dihydroquinolin-1(2H)-yl)acetamide] | < 100 | < 100 | < 100
O=C(Cn1c(=O)ccc2ccc(C(F)(F)F)cc21)Nc1scc(Br)c1-c1ncn[nH]1 [N-(4-bromo-3-(1H-1,2,4-triazol-5-yl)thiophen-2-yl)-2-(2-oxo-7-(trifluoromethyl)quinolin-1(2H)-yl)acetamide] | < 100 | < 100 | < 100
O=C(Cn1c(=O)ccc2cc(Cl)ccc21)Nc1scc(Br)c1-c1ncn[nH]1 [N-(4-bromo-3-(1H-1,2,4-triazol-5-yl)thiophen-2-yl)-2-(6-chloro-2-oxoquinolin-1(2H)-yl)acetamide] | < 100 | < 100 | < 100
O=C(Cc1cccc2ncccc12)Nc1scc(Br)c1-c1ncn[nH]1 [N-(4-bromo-3-(1H-1,2,4-triazol-5-yl)thiophen-2-yl)-2-(quinolin-5-yl)acetamide] | < 100 | < 100 | < 100
CN(C)CCn1cnc(-c2c(Cl)csc2NC(=O)Cn2c(=O)ccc3cc(C(F)(F)F)ccc32)n1 [N-(4-chloro-3-(1-(2-(dimethylamino)ethyl)-1H-1,2,4-triazol-3-yl)thiophen-2-yl)-2-(2-oxo-6-(trifluoromethyl)quinolin-1(2H)-yl)acetamide] | < 100 | < 100 | < 100
O=C(Cn1c(=O)ccc2cc(Br)ccc21)Nc1scc(Br)c1-c1nc[nH]n1 [2-(6-bromo-2-oxoquinolin-1(2H)-yl)-N-(4-bromo-3-(1H-1,2,4-triazol-3-yl)thiophen-2-yl)acetamide] | < 100 | < 100 | < 100
O=C(Cn1c(=O)ccc2nc(C(F)(F)F)ccc21)Nc1scc(Cl)c1-c1ncn[nH]1 [N-(4-chloro-3-(1H-1,2,4-triazol-5-yl)thiophen-2-yl)-2-(2-oxo-6-(trifluoromethyl)-1,5-naphthyridin-1(2H)-yl)acetamide] | < 100 | < 100 | < 100

Structure (SMILES) | IC50 (JNK3) [nM] | IC50 (JNK1) [nM] | IC50 (JNK2) [nM]
O=C(Cn1c(=O)ccc2cc(C(F)(F)F)ccc21)Nc1scc(Cl)c1-c1ncn[nH]1 [N-(4-chloro-3-(1H-1,2,4-triazol-5-yl)thiophen-2-yl)-2-(2-oxo-6-(trifluoromethyl)quinolin-1(2H)-yl)acetamide] | < 100 | < 100 | < 100
O=C(Cn1c(=O)ccc2cc(C(F)(F)F)c(F)cc21)Nc1scc(Br)c1-c1ncn[nH]1 [N-(4-bromo-3-(1H-1,2,4-triazol-5-yl)thiophen-2-yl)-2-(7-fluoro-2-oxo-6-(trifluoromethyl)quinolin-1(2H)-yl)acetamide] | < 100 | < 100 | < 100
O=C(Cn1c(=O)ccc2cnccc21)Nc1scc(Br)c1-c1ncn[nH]1 [N-(4-bromo-3-(1H-1,2,4-triazol-5-yl)thiophen-2-yl)-2-(2-oxo-1,6-naphthyridin-1(2H)-yl)acetamide] | < 100 | < 100 | < 100
N#Cc1csc(NC(=O)Cc2cccc3cnccc23)c1-c1ncn[nH]1 [N-(4-cyano-3-(1H-1,2,4-triazol-5-yl)thiophen-2-yl)-2-(isoquinolin-5-yl)acetamide] | < 100 | < 100 | < 100
Cn1cnc(-c2c(Cl)csc2NC(=O)Cn2c(=O)ccc3nc(C(F)(F)F)ccc32)n1 [N-(4-chloro-3-(1-methyl-1H-1,2,4-triazol-3-yl)thiophen-2-yl)-2-(2-oxo-6-(trifluoromethyl)-1,5-naphthyridin-1(2H)-yl)acetamide] | < 100 | < 100 | < 100
N#Cc1ccc2c(ccc(=O)n2CC(=O)Nc2scc(Cl)c2-c2nc[nH]n2)c1 [N-(4-chloro-3-(1H-1,2,4-triazol-3-yl)thiophen-2-yl)-2-(6-cyano-2-oxoquinolin-1(2H)-yl)acetamide] | < 100 | < 100 | < 100
N#Cc1csc(NC(=O)CN2C(=O)CCc3ncccc32)c1-c1nccs1 [N-(4-cyano-3-(thiazol-2-yl)thiophen-2-yl)-2-(2-oxo-3,4-dihydro-1,5-naphthyridin-1(2H)-yl)acetamide] | < 100 | < 100 | < 100
Cc1csc(NC(=O)CN2C(=O)CCc3ccccc32)c1-c1ncn[nH]1 [N-(4-methyl-3-(1H-1,2,4-triazol-5-yl)thiophen-2-yl)-2-(2-oxo-3,4-dihydroquinolin-1(2H)-yl)acetamide] | < 100 | < 100 | < 10000
N#Cc1csc(NC(=O)CN2C(=O)CCc3ncccc32)c1-c1nc[nH]n1 [N-(4-cyano-3-(1H-1,2,4-triazol-3-yl)thiophen-2-yl)-2-(2-oxo-3,4-dihydro-1,5-naphthyridin-1(2H)-yl)acetamide] | < 100 | < 100 | < 100
Cn1cnc(-c2c(Cl)csc2NC(=O)Cn2c(=O)ccn3nc(C(F)(F)F)cc23)n1 [N-(4-chloro-3-(1-methyl-1H-1,2,4-triazol-3-yl)thiophen-2-yl)-2-(5-oxo-2-(trifluoromethyl)pyrazolo[1,5-a]pyrimidin-4(5H)-yl)acetamide] | < 100 | < 100 | < 100
Cc1n[nH]c(-c2c(C)csc2NC(=O)CN2C(=O)CCc3ccccc32)n1 [N-(4-methyl-3-(3-methyl-1H-1,2,4-triazol-5-yl)thiophen-2-yl)-2-(2-oxo-3,4-dihydroquinolin-1(2H)-yl)acetamide] | < 100 | < 100 | < 100
O=C(CN1C(=O)CCc2cc(F)ccc21)Nc1scc(Br)c1-c1ncn[nH]1 [N-(4-bromo-3-(1H-1,2,4-triazol-5-yl)thiophen-2-yl)-2-(6-fluoro-2-oxo-3,4-dihydroquinolin-1(2H)-yl)acetamide] | < 100 | < 100 | < 100
O=C(Cn1c(=O)ccc2cnc(C(F)(F)F)cc21)Nc1scc(Cl)c1-c1nc[nH]n1 [N-(4-chloro-3-(1H-1,2,4-triazol-3-yl)thiophen-2-yl)-2-(2-oxo-7-(trifluoromethyl)-1,6-naphthyridin-1(2H)-yl)acetamide] | < 100 | < 100 | < 100
O=C(CN1C(=O)CCc2ccccc21)Nc1scc(Br)c1-c1ncn[nH]1 [N-(4-bromo-3-(1H-1,2,4-triazol-5-yl)thiophen-2-yl)-2-(2-oxo-3,4-dihydroquinolin-1(2H)-yl)acetamide] | < 100 | < 100 | < 100
O=C(Cn1c(=O)ccc2cc(C(F)(F)F)ccc21)Nc1scc(Br)c1-n1nccn1 [N-(4-bromo-3-(2H-1,2,3-triazol-2-yl)thiophen-2-yl)-2-(2-oxo-6-(trifluoromethyl)quinolin-1(2H)-yl)acetamide] | < 100 | 100 to 10000 | < 100
